Source: the supplement of paper PMC13380429

Assays:
Conditions in all cases: 72 h
[1] = tested on: Caco-2; test: cell viability relative to DMSO; higher = less toxic
[2] = tested on: Vero E6; test: as above
[3] = tested on: Calu-3; test: as above
[4] = tested on: HepG2; test: as above
[5] = tested on: U2OS; test: as above
[6] = tested on: Caco-2; test: drug sensitivity score (DSS) for viability; higher = more toxic; extreme values may be limits of the assay
[7] = tested on: Vero E6; test: as above
[8] = tested on: Calu-3; test: as above
[9] = tested on: HepG2; test: as above
[10] = tested on: U2OS; test: as above
[11] = tested on: Caco-2; test: relative viability EC50 (midpoint between 100% and the lowest measured viability); higher = less toxic
[12] = tested on: Vero E6; test: as above
[13] = tested on: Calu-3; test: as above
[14] = tested on: HepG2; test: as above
[15] = tested on: U2OS; test: as above

Row | Structure (SMILES) | cell viability ([1]; 1 nM) | cell viability ([1]; 10 nM) | cell viability ([1]; 100 nM) | cell viability ([1]; 1000 nM) | cell viability ([1]; 10000 nM) | cell viability ([2]; 1 nM) | cell viability ([2]; 10 nM) | cell viability ([2]; 100 nM) | cell viability ([2]; 1000 nM) | cell viability ([2]; 10000 nM) | cell viability ([3]; 1 nM) | cell viability ([3]; 10 nM) | cell viability ([3]; 100 nM) | cell viability ([3]; 1000 nM) | cell viability ([3]; 10000 nM) | cell viability ([4]; 1 nM) | cell viability ([4]; 10 nM) | cell viability ([4]; 100 nM) | cell viability ([4]; 1000 nM) | cell viability ([4]; 10000 nM) | cell viability ([5]; 1 nM) | cell viability ([5]; 10 nM) | cell viability ([5]; 100 nM) | cell viability ([5]; 1000 nM) | cell viability ([5]; 10000 nM) | drug sensitivity score [6] | drug sensitivity score [7] | drug sensitivity score [8] | drug sensitivity score [9] | drug sensitivity score [10] | relative viability EC50 [11] | relative viability EC50 [12] | relative viability EC50 [13] | relative viability EC50 [14] | relative viability EC50 [15]
1 | COc1cc(N2CCOCC2)ccc1Nc1ncc(Cl)c(Nc2ccccc2NS(C)(=O)=O)n1 | 99.5% | 91.7% | 94.1% | 80.8% | 35.6% | 99.1% | 110% | 99.1% | 76.9% | 15.6% | 103% | 84.2% | 84.2% | 59.6% | 19.6% | 103% | 101% | 94.7% | 70.6% | 23.1% | 102% | 97.2% | 98.8% | 75% | 27.4% | 6.1 | 8.2 | 10.4 | 7.8 | 7.6 | 1.49 µM | 1.47 µM | 0.667 µM | 1.29 µM | 1.29 µM
2 | COc1ccc(NS(=O)(=O)c2sc3ccc(Cl)cc3c2C)cc1N1CCNCC1 | 98.9% | 98.7% | 104% | 102% | 96.1% | 93.3% | 98% | 97.6% | 94.4% | 103% | 104% | 105% | 108% | 105% | 98.1% | 108% | 104% | 106% | 109% | 87.4% | 99.9% | 96% | 97.2% | 98.5% | 94.5% | 0 | 0 | 0 | 0 | 0 | > 10 µM | > 10 µM | > 10 µM | > 10 µM | > 10 µM
3 | Cc1ccccc1/N=N/c1ccc(NC(=O)c2ccnn2C)c(C)c1 | 90.6% | 94% | 97.9% | 93.8% | 91.5% | 97.3% | 92.1% | 95.2% | 94.1% | 108% | 112% | 100% | 97.6% | 99.3% | 90.9% | 107% | 102% | 104% | 91% | 97.6% | 96.7% | 102% | 100% | 102% | 93.2% | 0 | 0 | 0 | 0 | 0 | > 10 µM | > 10 µM | > 10 µM | > 10 µM | > 10 µM
4 | Cc1cccn2c(=O)c(/C=C(\C#N)c3nc4ccccc4s3)c(Oc3ccc(F)cc3)nc12 | 105% | 96.3% | 113% | 115% | 119% | 103% | 100% | 98.9% | 98.7% | 95.8% | 105% | 97.9% | 101% | 104% | 106% | 103% | 99.6% | 100% | 99.3% | 102% | 98.3% | 98.2% | 98.2% | 103% | 99.1% | 0 | 0 | 0 | 0 | 0 | > 10 µM | > 10 µM | > 10 µM | > 10 µM | > 10 µM
